Measurements reported in US20140259223A1, “METHODS FOR PRODUCING CINNAMOLIDE AND/OR DRIMENDIOL” (Keygene N.V., priority 2011, published 2014).

Experiments:
Myzus persicae = assay: dual-choice insect feeding assay on tomato leaf disks, aphids; assay type: in vivo; details: for effect on feeding at the lowest concentration used: lowest concentration used (113 μg gFW^−1 for cinnamolide)
Protocol: (§1) The insects used in this study were the silverleaf whitefly Bemisia tabaci (genotype B) and the green peach aphid Myzus persicae. Whiteflies were reared on tomato (Moneymaker cultivar) in a greenhouse at 26° C., at 60% relative humidity with a photoperiod of 16 h light and 8 h dark. To perform the assays, adult flies of both genders were collected from leaves with an aspirator. They were cold-anesthetized at 7° C. in a 3 cm diameter plastic cylinder covered with Parafilm® for 5 min, before being released into the Petri dish at the start of the dual-choice assay, to ensure they would not fly out before the dishes were sealed. Apterous (without wings) aphid adults were collected from Chinese cabbage (Brassica rapa L. subspecies pekinensis), on which they had been reared at room temperature in ambient light. They were collected in 2 ml test tubes and starved for about 30 min before inoculating them in the dishes. In the dual-choice assays, insects were presented with circular tomato leaf areas coated with either 50% ethanol in water (control) or a solution of cinnamolide in 50% ethanol in water (treatment; two disks with each solution). Cinnamolide was firstly dissolved in 96% ethanol at a concentration of 2 mg mL^−1; subsequently an equal volume of water was added bringing the maximum concentration used to 1 mg mL^−1. Further dilutions were performed adding directly one volume of 50% ethanol in water to one volume of the previous concentration. The three concentrations used were therefore 1 mg mL^−1, 500 μg mL^−1 and 250 μg mL^−1. […] The assays were carried on for either 18 or 24 h and the feeding insects counted at 30 min, 1 h, 2 h, 6 h, and 18 h for whiteflies and at 30 min, 1 h, 2 h, 6 h, and 24 h for aphids. […] To convert data from the concentration in ethanol, expressed as mg mL^−1, into concentration expressed as mg gFW^−1, the value must be multiplied by 15 (the volume in μL applied on each disk) and divided by 0.034 (mass of leaf disk in grams). […]

Bemisia tabaci = assay: dual-choice insect feeding assay on tomato leaf disks, whiteflies; assay type: in vivo
Protocol: as §1, with “dishes.” for “dishes. In the dual-choice assays, insects were presented with circular tomato leaf areas coated with either 50% ethanol in water (control) or a solution of cinnamolide in 50% ethanol in water (treatment; two disks with each solution). Cinnamolide was firstly dissolved in 96% ethanol at a concentration of 2 mg mL^−1; subsequently an equal volume of water was added bringing the maximum concentration used to 1 mg mL^−1. Further dilutions were performed adding directly one volume of 50% ethanol in water to one volume of the previous concentration. The three concentrations used were therefore 1 mg mL^−1, 500 μg mL^−1 and 250 μg mL^−1.”

[1] = 450, 225 and 113 μg gFW^−1, 6 h

Row | SMILES | Antifeedant Index (Al %), dose response (Myzus persicae; [1]) | effect on feeding at the lowest concentration used (Myzus persicae) | Antifeedant Index (Al %), dose response (Bemisia tabaci; [1]) | attractant (phagostimulant) effect at the lowest concentration used (Bemisia tabaci; lowest concentration used (113 μg gFW^−1))
1 | CC1(C)CCC[C@]2(C)[C@H]3COC(=O)C3=CC[C@@H]12 [cinnamolide] | increases with the increasing concentrations applied | attractant (phagostimulant) effect | increases with the increasing concentrations applied | not seen
2 | CC1(C)CCC[C@]2(C)[C@@H](C=O)C(C=O)=CC[C@@H]12 [polygodial, reference compound] |  | attractant (phagostimulant) effect |  | 
